For data set [1], the system named is isolated working rat heart. Particulars: S 100 ng/ml plus R 50-950 ng/ml cumulative.
Data set [2] concerns isolated working rat heart. Particulars: R/S ratio 9.5.
Data set [3] has as its system canine heart. Particulars: for AH time / Heart rate / Mean arterial pressure: mean ± SE. On the procedure:
Fourteen adult mongrel dogs of either sex weighing between 19 and 25 kg were prepared for chronic electrophysiologic investigation by implanting epicardial electrodes and an indwelling aortic catheter. The dogs were fasted overnight and initially anesthetized with halothane on the day of surgery. After tracheal intubation, anesthesia was maintained with isoflurane and oxygen via positive pressure ventilation to keep end tidal carbon dioxide within the normal range. Muscular relaxation was induced by pancuronium. A right thoracotomy was performed in the fifth intercostal space. Three bipolar electrode pairs were sutured to the epicardial surface of the right atrial appendage and on the right and left ventricular apex (FIG. 5). A bipolar electrode was sutured to the right atrium close to the anatomical region of the sinoatrial node. A bipolar plunge electrode was placed into base of the interventricular septum to record a His bundle electrogram. An indwelling arterial catheter was placed into the aorta through the left femoral artery after surgical exposure of the artery at the inner side of the hind limb. All electrode leads were subcutaneously tunneled and exited through the skin between the scapulae. Incisions were closed in anatomic fashion and standard postoperative methods of analgesia were provided with 0.015 mg/kg of buprenorphine (Buprenex®, Reckitt & Colman, Hull, UK) and two times of 25 mg/kg cefazolin (Cefazolin Sodium®, SoloPak Laboratories, Elk Groove Village, Ill.) and dogs were allowed to recover from surgery for a period of seven days prior to testing.
Electrical signals from the bipolar electrodes, after suitable amplification in a custom built preamplifier (gain 1000), were filtered in a separate custom designed and built common mode rejection amplifier with a bandpass filter of 10-1000 Hz and individually adjusted for signal strength (maximal gain 400). […] Right atrial appendage (RA), right ventricular apex (RVA) and His bundle electrograms (HB) were recorded, simultaneously. […] All measurements of conduction times were made during spontaneous sinus rhythm.
The His bundle electrode (HBE) was advanced into the base of the interatrial septum from the aortic root. The electrode was advanced from a point located just behind and to the right of the origin of the right coronary artery. The HBE was slowly advanced parallel to the aorta, inferiorly and slightly anteriorly until a well discernible His potential was recorded. AV conduction (AH) interval was measured as the time difference (ms) between the onset of the initial rapid deflection in the RA electrogram to the beginning of the His potential in the HB electrogram. His-ventricular (HV) conduction time interval (ms) was measured from the beginning of the His potential (HBE) to the initial deflection of the QRS complex wave (earliest left ventricular activation) in a simultaneously recorded surface ECG lead II.
As an indicator of automaticity, sinus node recovery time (SNRT) was determined by pacing the right atrial appendage (30 s at 180 and 200 beats/min at 2 msec pulse duration; 2×threshold). SNRT was measured from the last pacing spike to the first spontaneous atrial activity on the His bundle electrogram after cessation of pacing (ms).
A timed extrastimulus (S2) was delivered 300 ms after the preceding pacing spike (S1).
Verapamil was dissolved in 5% dextrose and water ([…]).
During the postoperative period, each dog was trained to stand quietly in a sling during electrophysiological monitoring. Prior to measurement, electrical signals in each dog were monitored to verify the absence of spontaneous arrhythmias other-than normal respiratory sinus arrhythmias.
From the resting dog, 5 channel records were obtained at a sampling rate of 1 kHz per channel for 7 min to determine the following conduction intervals: AH, HV, QRS, QT and HR. A corrected QT interval [QTc=QT interval in ms/ (R-R interval in s)^1/2 ] was also calculated.

Setting [4] is: pH 5, individual replicates, listed as 80.

Several values for one entry are separate records, joined by “and”; a condition that tells them apart may be missing. Identical values can stand only once. Like-named read-outs stand apart in the source and are kept apart here.

The source of these data is patent publication US5955500A (G. D. Searle & Co., priority 1997, dated 1999).

`COc1ccc(CCN(C)CCCC(C#N)(c2ccc(OC)c(OC)c2)C(C)C)cc1OC` (racemic) [R/S (2.0)]: in data set [1], the “Cardiac output (CO), significance vs predrug” value was “n.s”; the “Heart rate (HR), significance vs predrug” value is reported as “n.s”; the “Peak systolic pressure (PSP), significance vs predrug” value is given as “n.s”.
Regarding `COc1ccc(CCN(C)CCCC(C#N)(c2ccc(OC)c(OC)c2)C(C)C)cc1OC` (racemic) [R/S (0.5)], in data set [1], the “Cardiac output (CO), significance vs predrug” value is “n.s” and the “Heart rate (HR), significance vs predrug” value is recorded as “n.s”.
Turning to `COc1ccc(CCN(C)CCCC(C#N)(c2ccc(OC)c(OC)c2)C(C)C)cc1OC` (racemic) [R/S (4.5)], in data set [1], the “Heart rate (HR), significance vs predrug” value is given as “n.s” and the “Peak systolic pressure (PSP), significance vs predrug” value is given as “n.s”.
Turning to `COc1ccc(CCN(C)CCCC(C#N)(c2ccc(OC)c(OC)c2)C(C)C)cc1OC` (racemic) [R/S (9.5)], the “Effect of mixture on heart rate, in words” value in data set [2] is recorded as “additive”. In data set [2] (S 100 ng/ml, R 950 ng/ml), the “Peak systolic pressure (PSP), significance vs predrug” value is given as “n.s”.
On to `COc1ccc(CCN(C)CCCC(C#N)(c2ccc(OC)c(OC)c2)C(C)C)cc1OC` (racemic) [20/80S], for which, under “pH 5”, the “Eutectic compound identification (phase diagram based on Po/w)” value is recorded as “eutectic compound”. In addition, under setting [4], the Concentration in octanol is 4160 ng/mL and 4490 ng/mL and 3810 ng/mL. Moreover, the Concentration in water under setting [4] is 6950 ng/mL and 6930 ng/mL and 6920 ng/mL. Further, the AH time in data set [3] (0.1 mg/kg i.v., 0 min) is 88 ± 5 ms; in data set [3] (0.1 mg/kg i.v., 1 min), 100 ± 5 ms; in data set [3] (0.1 mg/kg i.v., 2 min) it was 106 ± 5 ms; in data set [3] (0.1 mg/kg i.v., 3 min) it was 107 ± 5 ms; in data set [3] (0.1 mg/kg i.v., 4 min), 111 ± 6 ms; in data set [3] (0.1 mg/kg i.v., 5 min), 112 ± 5 ms. Moreover, the AH time in data set [3] (0.2 mg/kg i.v., 0 min) came out at 110 ± 10 ms; in data set [3] (0.2 mg/kg i.v., 1 min) it was 126 ± 11 ms; in data set [3] (0.2 mg/kg i.v., 2 min), 133 ± 10 ms; in data set [3] (0.2 mg/kg i.v., 3 min) it was 140 ± 12 ms; in data set [3] (0.2 mg/kg i.v., 4 min) it was 127 ± 14 ms; in data set [3] (0.2 mg/kg i.v., 5 min), 130 ± 11 ms. Moreover, the Heart rate amounted to 155 ± 13 beats per min in data set [3] (0.1 mg/kg i.v., 0 min); 143 ± 11 beats per min in data set [3] (0.1 mg/kg i.v., 1 min); 127 ± 10 beats per min in data set [3] (0.1 mg/kg i.v., 2 min); 124 ± 9 beats per min in data set [3] (0.1 mg/kg i.v., 3 min); 113 ± 11 beats per min in data set [3] (0.1 mg/kg i.v., 4 min); 111 ± 8 beats per min in data set [3] (0.1 mg/kg i.v., 5 min). For the same compound, the Heart rate in data set [3] (0.2 mg/kg i.v., 0 min) was determined as 168 ± 10 beats per min; in data set [3] (0.2 mg/kg i.v., 1 min), 166 ± 9 beats per min; in data set [3] (0.2 mg/kg i.v., 2 min), 154 ± 8 beats per min; in data set [3] (0.2 mg/kg i.v., 3 min), 141 ± 11 beats per min; in data set [3] (0.2 mg/kg i.v., 4 min), 155 ± 16 beats per min; in data set [3] (0.2 mg/kg i.v., 5 min) it was 146 ± 4 beats per min. Further, the Mean arterial pressure in data set [3] (0.1 mg/kg i.v., 0 min) was determined as 92 ± 4 mmHg; in data set [3] (0.1 mg/kg i.v., 1 min) it was 97 ± 3 mmHg; in data set [3] (0.1 mg/kg i.v., 2 min) it was 100 ± 3 mmHg; in data set [3] (0.1 mg/kg i.v., 3 min) it was 100 ± 4 mmHg; in data set [3] (0.1 mg/kg i.v., 4 min) it was 99 ± 4 mmHg; in data set [3] (0.1 mg/kg i.v., 5 min), 101 ± 4 mmHg. Further, the Mean arterial pressure in data set [3] (0.2 mg/kg i.v., 0 min) was determined as 84 ± 3 mmHg; in data set [3] (0.2 mg/kg i.v., 1 min), 87 ± 4 mmHg; in data set [3] (0.2 mg/kg i.v., 2 min), 93 ± 5 mmHg; in data set [3] (0.2 mg/kg i.v., 3 min), 94 ± 5 mmHg; in data set [3] (0.2 mg/kg i.v., 4 min), 97 ± 5 mmHg; in data set [3] (0.2 mg/kg i.v., 5 min), 98 ± 3 mmHg. In addition, the “Occurrence of AV conduction block” value in data set [3] (0.2 mg/kg i.v., listed as 20R/80S-verapamil) is reported as 5 animals. For the same compound, in data set [3] (0.4 mg/kg i.v., listed as 20R/80S-verapamil), the “Occurrence of second and third degree AV conduction block” value is recorded as “all”. For the same compound, the “Recovery of the decrease in MAP” value in data set [3] (compared with any other groups) is “slower”. Also, in data set [3] (dog, in vivo), the “Peak effect on HR, in words” value is listed as “drastic increase in HR”. For the same compound, the “QTc interval compared with 100R-verapamil, in words” value in data set [3] (dog, in vivo) is reported as “significantly increased compared with 100R-verapamil”. Moreover, the “Interaction between MAP and HR (multiple linear regression), in words” value in data set [3] (increase in HR against drop in MAP) was “greatest rate of increase in HR as opposed to a drop in MAP”.
